Data set [1] has as its system human dermal fibroblasts (HDF). The procedure:
(§1) Finally, toxicity of biaryl compounds was tested against human lung airway epithelial cells (16HBE), human dermal fibroblasts, and J774.A1 murine macrophages using an ALAMARBLUE® Cell Viability Assay. Biaryl compounds, C58, acetylated C58 (C58-2), C59, C59-2, C59Na, and C59Li were incubated with cells for 24 hours and an ALAMARBLUE® Cell Viability Assay was performed to determine cell viability relative to untreated controls (FIGS. 13A-13C). Cell viability curves were analyzed using non-linear curve fit to yield the inhibitory concentration at median cell survival (LD50) for all cell lines (Table 3).
(§2) Next, the toxicity of lead candidates was tested against human lung airway epithelial cells (16HBE) and human dermal fibroblasts (HDF) using an alamarBlue® Cell Viability Assay.

Data set [2] deals with human lung airway epithelial cells (16HBE). On the procedure: as §1, §2
The test system of data set [3] is erythrocytes from sheep blood. Kind of data set: Hemolytic activity. The procedure: Toxicity of biaryl compounds was tested against erythrocytes as well as eukaryotic epithelial, dermal, and macrophage cell lines in vitro.
Toxicity of lead antimicrobial candidates was tested against erythrocytes, as well as eukaryotic epithelial and dermal cell lines in vitro.

A further data set deals with H460. Put plainly: Lung cancer cell survival, H460. The class given is cell-based. The note with it: 72 hour incubation, non-linear curve fit. The procedure: (§3) The IC50 values generated using a non-linear curve fit with lung cancer cell lines, A549, H460, H2122, and H2073 are listed in Table 10. Experiments were performed using C58, C58-2, C59, C59-2, C119, and acetylated C119 (C119-2). […] Additionally, these concentrations are clinically achievable for treatment of lung cancer and a detailed structure activity relationship experiments needs to be performed to identify promising anticancer candidates.

In data set [4] the test system is E. faecalis strains 49532 and 51575. Put plainly: MIC/MBC broth microdilution against E. faecalis. The class given is cell-based, Enterococcus faecalis. A general note: In broth dilution the organism is exposed to a series of concentrations in liquid medium.
For the next data set, the system named is MRSA strain USA300. Kind of data set: Kill kinetics with planktonic log-phase MRSA. The class given is cell-based, Staphylococcus aureus. The note with it: log-phase USA300, 24 hours.
The test system of the next data set is 38 MRSA strains. The note with it: MH broth.
For another data set, the system named is H2122. Put plainly: Lung cancer cell survival, H2122. The class given is cell-based. The note with it: 72 hour incubation, non-linear curve fit. On the procedure:
as §3

Data set [5] has as its system MRSA strains USA300 and SALL06. Kind of data set: Kill kinetics with stationary-phase MRSA. The class given is cell-based, Staphylococcus aureus. Particulars: stationary-phase USA300 and SALL06, up to 24 hours.
A further data set has as its system A549. Put plainly: Lung cancer cell survival, A549. The class given is cell-based. The note with it: 72 hour incubation, non-linear curve fit. On the procedure:
as §3

A further data set concerns MRSA SA LL06. Kind of data set: Growth curves (OD650, 18-h), MRSA SA LL06. Particulars: SA LL06, 18-h. The class given is cell-based, Staphylococcus aureus.
In a further data set the test system is MRSA strain USA 300. Kind of data set: Growth curves (OD650, 18-h), MRSA USA 300. Particulars: stationary phase USA 300, 18-h, compared with non-treated control. The class given is cell-based, Staphylococcus aureus. On the procedure:
The rate of bacterial growth in presence of antimicrobial candidates, C58, C59, C59Na, or 4-76, was performed using stationary phase MRSA, USA 300 and SA LL06, or S. epidermidis, M0881, and compared with SoC antimicrobial, vancomycin. In addition, these growth rates were compared with the kill kinetics described earlier (FIGS. 4 & 5). […] A reduction in bacterial growth rate, represented by a lower absorbance at OD650, can be observed with C59 and C59Na at concentrations as low as 0.125×MIC compared with non-treated control. […] However, in the kill kinetics experiments, vancomycin fails to eradicate stationary phase MRSA at concentrations up to 2×MIC. This anomaly can be explained by the different experimental conditions between the kill kinetics and growth curve experiments; bacterial samples are grown with constant shaking on an orbital shaker for a kill kinetics experiment but not for a growth curve experiment.
Finally, the antimicrobial efficacy of enantiomers of compound 4-76 were evaluated against log-phase MRSA strain USA 300, as described earlier.

The test system of data set [6] is R. equi strains 701+, 701−, 703, and 5331. Kind of data set: MIC/MBC broth microdilution against R. equi. The class given is cell-based, Rhodococcus equi.
Data set [7] relates to eukaryotic cell lines tested. Put plainly: ALAMARBLUE Cell Viability Assay, LD50 quoted in text (cell line not given). The note with it: 24 hours; cell line not named in the sentence (Table 3 not given). On the procedure:
as §1

For data set [8], the system named is 21 S. epidermidis strains. Put plainly: MIC90/MBC90 broth microdilution against 21 S. epidermidis strains. The class given is cell-based, Staphylococcus epidermidis. Particulars: 21 S. epidermidis strains. An excerpt: We are currently in the process of evaluating the MICs and MBCs for 5-32.
The test system of data set [9] is seven S. pyogenes strains. Kind of data set: MIC/MBC against panel of S. pyogenes strains. Particulars: range over seven S. pyogenes strains. The class given is cell-based, Streptococcus pyogenes. The procedure: The activity of compounds against Gram-positive pathogens, S. pyogenes and S. pneumoniae, identified through the preliminary screen (FIG. 15) was evaluated against a panel of these pathogens.

The test system of a further data set is H2073. Put plainly: Lung cancer cell survival, H2073. The class given is cell-based. Particulars: 72 hour incubation, non-linear curve fit. On the procedure: as §3
In a further data set the test system is erythrocytes. The note with it: 50 μg/mL, two hour incubation; cited from earlier work.
[10] abbreviates: 24-h incubation, non-linear curve fit.

Values after ≈ are worked out from the molar mass of the structure shown. Read-outs that look alike come from different tables or passages of the source.

On to `COc1c(C)cc(O)c(-c2c(O)ccc3ccccc23)c1C`, for which the melting point lay within 190 to 191 °C.

With `C[C@@H]1[C@H](O)[C@@H](C)/C=C/C=C/C=C/C=C/C=C/C=C/C=C/[C@H](O[C@@H]2O[C@H](C)[C@@H](O)[C@H](N)[C@@H]2O)C[C@@H]2O[C@](O)(C[C@@H](O)C[C@@H](O)[C@H](O)CC[C@@H](O)C[C@@H](O)CC(=O)O[C@H]1C)C[C@H](O)[C@H]2C(=O)O` [Amphotericin B, reference compound], the “Fibroblasts LD50” value in data set [1] (human, 24 h) came out at 2.2 µg/mL. Moreover, in [2] (human, 24 h), the “16HBE LD50” value came to 12.6 µg/mL. For the same compound, in data set [3] (sheep, 1 h), the “concentration resulting in 100% hemolysis” value came to 8 µg/mL and the onset of hemolysis was 2 µg/mL.

Consider `Oc1c(Cl)cc(Cl)cc1-c1cc(Cl)cc(Cl)c1O` [C59], for which the “H460 LD50” value in the data set with H460 stood at 37 µM. For the same compound, the MBC in [4] (strain 49532) was 16 µg/mL (≈ 49.4 µM); in data set [4] (strain 51575) it was 16 µg/mL (≈ 49.4 µM); in data set [6] (strain 701+), 4 µg/mL (≈ 12.3 µM); in [6] (strain 701−) it was 16 µg/mL (≈ 49.4 µM); in [6] (strain 703) it was 8 µg/mL (≈ 24.7 µM); in [6] (strain 5331) it was 4 µg/mL (≈ 12.3 µM). Besides, the MIC is 8 µg/mL (≈ 24.7 µM) in data set [4] (strain 49532); 8 µg/mL (≈ 24.7 µM) in [4] (strain 51575); 2 µg/mL (≈ 6.17 µM) in data set [6] (strain 701+); 2 µg/mL (≈ 6.17 µM) in data set [6] (strain 701−); 2 µg/mL (≈ 6.17 µM) in data set [6] (strain 703); 2 µg/mL (≈ 6.17 µM) in data set [6] (strain 5331). In the data set on MRSA strain USA300, the “concentration of complete killing” value was 8 µg/mL. In addition, in the data set with MRSA strain USA300, the “dose response of bacterial eradication” value is recorded as “dose-dependent manner”. In addition, the “lowest concentration with reduction in bacterial burden” value in the data set on MRSA strain USA300 (compared with untreated bacteria) was found to be 0.5 µg/mL. Further, the figures for the MBC90 (in the data set on 38 MRSA strains; in data set [8]) were 6 µg/mL (≈ 18.5 µM) and 12 µg/mL (≈ 37 µM), respectively. Further, the MIC90 came out at 2 µg/mL (≈ 6.17 µM) in the data set on 38 MRSA strains and 4 µg/mL (≈ 12.3 µM) in data set [8]. The “H2122 LD50” value in the data set with H2122 was 91 µM. Further, the “eradication of stationary-phase bacteria” value in data set [5] is recorded as “continues to eradicate bacteria”. Besides, the “A549 LD50” value in the data set with A549 came to 123 µM. In addition, the “lowest concentration with reduction in bacterial growth rate” value with MRSA SA LL06 is 0.125 ×MIC. For the same compound, the “lowest concentration with reduction in bacterial growth rate (lower OD650)” value in the data set with MRSA strain USA 300 is 0.125 ×MIC. The “LD50 (inhibitory concentration at median cell survival)” value in data set [7] amounted to 40 µg/mL. For the same compound, in [9], the MBCs lay within 12 to 24 µg/mL. Further, in data set [9], the MICs was 2 to 12 µg/mL. For the same compound, in the data set on H2073, the “H2073 LD50” value was 43 µM.

For Gramicidin D [reference compound], the hemolysis with erythrocytes is on record as 60%. Besides, in data set [1] (setting [10]), the “Fibroblasts LD50” value was found to be 3.9 µg/mL. Further, in data set [2] (setting [10]), the “16HBE LD50” value was 20.5 µg/mL. Also, in data set [3] (1-h incubation), the “concentration resulting in 100% hemolysis” value is 48 µg/mL and the onset of hemolysis was determined as 2 µg/mL.

A word on the melting point: it is the temperature of the solid-liquid transition. A word on the MBC: it is the smallest concentration meeting the test's criterion for killing. As a reminder, the MIC is the least concentration at which growth counts as inhibited. Read a low MIC as inhibition by little substance. As a reminder, the MIC90 is the lowest concentration that inhibits either 90% of growth or 90% of the strains tested, depending on the study.

The values above are taken from patent publication US20190202774A1, “BIARYL COMPOUNDS AS ANTIMICROBIAL AND CHEMOTHERAPEUTIC AGENTS” (priority 2015, published 2019).
